Results reported in patent publication US20070075630A1, “Organic compositions” (priority 2005, published 2007).

assay: solubility of organic semiconductor in solvent (Table 1, formulation and processing); format: physicochemical; settings: solvent THF

Compound	solubility in THF
CC(CO)COc1ccc(-c2ccc(-c3ccc(-c4ccc(OCC(C)CO)cc4)s3)s2)cc1 (stereo not drawn) [3(3OH,2Me)-O-PTTP- O-3(3OH,2Me), 3-(4-{5′-[4-(3-Hydroxy-2-methyl-propoxy)-phenyl]-[2,2′]bithiophenyl-5-yl}-phenoxy)-2-methyl-propan-1-ol]	Low solubility in THF (600 ppm)
CC(COc1ccc(-c2ccc(-c3ccc(-c4ccc(OCC(C)COC5CCCCO5)cc4)s3)s2)cc1)COC1CCCCO1 (stereo not drawn) [3(3THPO,2Me)-O-PTTP- O-3(THPO,2Me), 5,5′-Bis-[4-(2-methyl-propoxy-tetrahydro-pyran)-phenoxy]-[2,2′]bithiophenyl]	Well soluble in THF (about 75,000 ppm)
CCC(CC)COc1ccc(-c2ccc(-c3ccc(-c4ccc(OCC(CC)CC)cc4)s3)s2)cc1 [4(2Et)-O-PTTP-O- 4(2Et), 5,5′-bis(4-(2-ethylbutyloxy)phenyl)-2,2′-bithiophene]	solubility in THF about 4,900 ppm
CC(C)CCCOc1ccc(-c2ccc(-c3ccc(-c4ccc(OCCCC(C)C)cc4)s3)s2)cc1 [5(4Me)-O-PTTP-O-5(4Me), 5,5′-bis(4-(4-methylpentyloxy)phenyl)-2,2′-bithiophene]	solubility in THF about 5400 ppm. DSC: mp =250° C., smaller
CCCCCC(CC)Oc1ccc(-c2ccc(-c3ccc(-c4ccc(OC(CC)CCCCC)cc4)s3)s2)cc1 (stereo not drawn) [6(1Et)-O-PTTP-O- 6(1Et), 5,5═-Bis-[4-(1-ethyl-hexyloxy)-phenyl]-[2,2′]bithiophenyl]	Well soluble in THF (about 330,000 ppm) DSC: mp = 97-102° C., (broad transition)
CCCCCC(C)Oc1ccc(-c2ccc(-c3ccc(-c4ccc(OC(C)CCCCC)cc4)s3)s2)cc1 (stereo not drawn) [6(1Me)-O-PTTP-O- 6(1Me), 5,5′bis(4-(1-methylhexyloxy)phenyl)-2,2′-bithiophene]	~89,000 ppm
CCCCC(C)COc1ccc(-c2ccc(-c3ccc(-c4ccc(OCC(C)CCCC)cc4)s3)s2)cc1 (stereo not drawn) [6(2Me)-O-PTTP-O- 6(2Me), 5,5′-bis(4-(2-methylhexyloxy)phenyl)-2,2′-bithiophene]	sufficiently soluble in THF (about 61,000 ppm) DSC: mp = 197 °C
CC(C)(C)[Si](OCCCCCCOc1ccc(-c2ccc(-c3ccc(-c4ccc(OCCCCCCO[Si](c5ccccc5)(c5ccccc5)C(C)(C)C)cc4)s3)s2)cc1)(c1ccccc1)c1ccccc1 [6(6TBDPSO)-O- PTTP-O- 6(6TBDPSO), 5,5′-Bis-{4-[6-(tert-butyl-diphenyl-silanyloxy)-hexyloxy]-phenyl}-[2,2′]bithiophenyl]	# THF (about 310,000 ppm)
CCCCCCOc1ccc(-c2ccc(-c3ccc(-c4ccc(OCCCCCC)cc4)s3)s2)cc1 [6-O-PTTP-O-6, 5,5′-bis(4-hexyloxyphenyl)-2,2′-bithiophene]	solubility in THF about 600 ppm, lowest value by far. Differential scanning calorimetry
C=CC(C=C)OC(=O)CCCCCOc1ccc(-c2ccc(-c3ccc(-c4ccc(OCCCCCC(=O)OC(C=C)C=C)cc4)s3)s2)cc1 [6-[4-(5′-[5-(1-Vinyl-allyloxycarbonyl)-pentyloxy]-phenyl}-[2,2′]bithiophenyl-5-yl)-phenoxy]-hexanoic acid 1-vinyl-allyl ester]	well soluble in THF (131,000 ppm)
CC(C)CCCC(C)CCOc1ccc(-c2ccc(-c3ccc(-c4ccc(OCCC(C)CCCC(C)C)cc4)s3)s2)cc1 (stereo not drawn) [8(3,7Me)-O-PTTP-O- 8(3,7Me), 5,5′-bis(4-(3,7-dimethyloctyloxy)phenyl)-2,2′-bithiophene]	solubility in THF about 12,000 ppm DCS: mp = 192° C.,

same assay, conditions: solvent not stated

Compound	solubility (in words, compared with 6PTTP6)
CCCOCCc1ccc(-c2ccc(-c3ccc(-c4ccc(CCOCCC)cc4)s3)s2)cc1 [3O2PTTP2O3, 5,5═-Bis(4-(propxyethyl)phenyl)-2,2′-bithiophene]	Solubility like 6PTTP6
